# Measured values taken from patent US20180353460A1, “METHODS OF TREATING UROLOGICAL DISORDERS USING SARMs” (priority 2014, published 2018).
# Where “and” joins values, the source holds several entries; their conditions need not be identical. Equal entries are not always repeated.
# Legend:
# [1] = tested on: postmenopausal women with SUI and UUI; assay: Proof of concept clinical study: urge incontinence leaks per day; type: in vivo, human
# Text: Unexpectedly, Compound IX reduced the median and mean number of urge leaks by ˜60-70% at the week 12 endpoint (Table 12). FIG. 14 provides mean urge leaks/day data over the course of the study in these 11 patients. At baseline the mean was 1.41 urge leaks per day which was reduced to 0.45 urge leaks per day at weak 12, representing a 68% decrease from baseline. Further, the effect on urge incontinence is durable for at least 7 months (N=7) with 0.62 urge leaks per day at 40 weeks (7 months after the last dose of Compound IX). It was unexpected to see any effect of Compound IX on urge incontinence much less such a dramatic and durable effect.
# To summarize: while all of the women in the trial had predominant SUI, some also experienced urge urinary incontinence (UUI).
# [2] = tested on: postmenopausal women with SUI; assay: Proof of concept clinical study: safety; type: in vivo, human; settings: 3 mg/day p.o., 12 weeks
# Description: (§1) Described is the safety profile of Compound IX 3 mg PO daily in subjects with SUI. See Table 8 which is historical data from other clinical trials establishing the safety profile of Compound IX in human subjects. See also the lack of increase in endometrial thickness in Example 19.
# (§2) For the PGI-S measure, 12 patients reported symptoms as “moderate” or “severe” at baseline; whereas only 3 patients reported “moderate” symptoms and no patients reported “severe” at 12 weeks (FIG. 12A).
# [3] = tested on: human subjects; assay: Safety profile from other clinical trials (treatment related adverse events); type: in vivo
# Description: as §1, §2
# Mean stress leaks decreased by 81 percent from baseline over 12 weeks (5.17 leaks/day at baseline to 1.0 leaks/day at week 12), and the reductions in daily stress leaks following completion of treatment have been sustained as subjects are being followed for up to 7 months post-treatment to assess the durability of treatment effect (0.63 leaks/day at 40 weeks (7 months post-treatment) in the first nine subjects). No subject has relapsed to their baseline levels. Urge urinary incontinence was also observed in 11 subjects, and Compound IX produced a 68% reduction from baseline over 12 weeks in these patients, which was also observed to be durable for at least 7 months (N=7). […] All were consistent with AR pharmacology and previous clinical trials with Compound IX. Based on the results from this Phase 2 proof-of-concept study with Compound IX, a randomized, placebo-controlled Phase 2 clinical trial to evaluate the change in frequency of daily stress urinary incontinence episodes following 12 weeks of treatment was initiated. The trial will evaluate the safety and efficacy of Compound IX (1 mg and 3 mg) compared with placebo in postmenopausal women with SUI.
# [4] = tested on: male and female humans; assay: Phase 3 studies G300504 and G300505: lean body mass; type: in vivo, human; settings: 3 mg daily, two phase 3 studies
# Text: Extensive clinical data related to the use of Compound IX are described below; however, there are both preclinical and clinical data supporting the specific investigation of Compound IX for the treatment of SUI. Among the preclinical findings are that Compound IX has androgenic and anabolic activity in male and female rat models. […] These studies together provide an approximation of the expected effect of Compound IX, since currently there are no data in female models regarding levator ani hypertrophy or stress urinary incontinence. […] Based upon these preclinical and clinical analyses, a significant growth/bulking of the levator ani in females with SUI was anticipated, which may also result in improvements in associated symptoms, and are therefore the focus of the study outlined herein.
compound,measurement,setting,value
"C[C@](O)(COc1ccc(C#N)cc1)C(=O)Nc1ccc(C#N)c(C(F)(F)F)c1 [Compound IX, (S)—N-(4-Cyano-3-(trifluoromethyl)phenyl)-3-(4-cyanophenoxy)-2-hydroxy-2-methylpropanamide]","Median urge incontinence leaks per day, Week 12","[1]; 11 patients with >0 baseline leaks, baseline 1.3",0.3
same,"Mean urge incontinence leaks per day, Week 12","[1]; 11 patients with >0 baseline leaks, baseline 1.41",0.45 leaks/day
same,mean urge leaks per day at 40 weeks,"[1]; N=7, 7 months after the last dose",0.62 urge leaks per day
same,"Number of Urge Incontinence Leaks per Day, Week 12","[1]; individual patients, 3 mg/day p.o.",0 (10×) and 0.33 and 1 (2×) and 0.3 and 2.7 and 1.67 and 0.67
same,women with a reduction in UUI episodes per day of at least 50 percent,[1]; week 12,8 of 11
same,women with a reduction in their number of UUI leaks compared to baseline,[1]; week 12,9 of 11 and 11 of 11
same,reduction of median and mean number of urge leaks,"[1]; week 12 endpoint, 11 patients",60-70%
same,SHBG,[2],Reductions in SHBG
same,endometrial stripe thickness,[2],No changes in endometrial stripe thickness
same,liver enzymes,[2],Mild transient elevations in liver enzymes
same,serious adverse events,[2],no serious adverse events reported
same,"total cholesterol, LDL, HDL and triglycerides",[2],"reductions in total cholesterol, LDL, HDL and triglycerides"
same,"Abdominal Pain, figure in parentheses (percent of subjects)",[3]; N = 896,(0.8)
same,"Abdominal Pain, number of subjects",[3]; N = 896,7
same,"Alanine Aminotransferase Increased, figure in parentheses (percent of subjects)",[3]; N = 896,(2.1)
same,"Alanine Aminotransferase Increased, number of subjects",[3]; N = 896,19
same,"Any Treatment Related Adverse Event, figure in parentheses (percent of subjects)",[3]; N = 896,(24.4)
same,"Any Treatment Related Adverse Event, number of subjects",[3]; N = 896,219
same,"Back pain, figure in parentheses (percent of subjects)",[3]; N = 896,(1.5)
same,"Back pain, number of subjects",[3]; N = 896,13
same,"Constipation, figure in parentheses (percent of subjects)",[3]; N = 896,(1.3)
same,"Constipation, number of subjects",[3]; N = 896,12
same,"Diarrhea, figure in parentheses (percent of subjects)",[3]; N = 896,(2.1)
same,"Diarrhea, number of subjects",[3]; N = 896,19
same,"Dizziness Postural, figure in parentheses (percent of subjects)",[3]; N = 896,(0.6)
same,"Dizziness Postural, number of subjects",[3]; N = 896,5
same,"Dizziness, figure in parentheses (percent of subjects)",[3]; N = 896,(2.0)
same,"Dizziness, number of subjects",[3]; N = 896,18
same,"Dyspnea, figure in parentheses (percent of subjects)",[3]; N = 896,(0.9)
same,"Dyspnea, number of subjects",[3]; N = 896,8
same,"Fatigue, figure in parentheses (percent of subjects)",[3]; N = 896,(0.9)
same,"Fatigue, number of subjects",[3]; N = 896,8
same,"Headache, figure in parentheses (percent of subjects)",[3]; N = 896,(5.7)
same,"Headache, number of subjects",[3]; N = 896,51
same,"Hot Flush, figure in parentheses (percent of subjects)",[3]; N = 896,(0.7)
same,"Hot Flush, number of subjects",[3]; N = 896,6
same,"Hyperhidrosis, figure in parentheses (percent of subjects)",[3]; N = 896,(1.0)
same,"Hyperhidrosis, number of subjects",[3]; N = 896,9
same,"Insomnia, figure in parentheses (percent of subjects)",[3]; N = 896,(0.6)
same,"Insomnia, number of subjects",[3]; N = 896,5
same,"Muscle Spasms, figure in parentheses (percent of subjects)",[3]; N = 896,(0.7)
same,"Muscle Spasms, number of subjects",[3]; N = 896,6
same,"Myalgia, figure in parentheses (percent of subjects)",[3]; N = 896,(0.7)
same,"Myalgia, number of subjects",[3]; N = 896,6
same,"Nausea, figure in parentheses (percent of subjects)",[3]; N = 896,(3.0)
same,"Nausea, number of subjects",[3]; N = 896,27
same,"Pain in Extremity, figure in parentheses (percent of subjects)",[3]; N = 896,(1.2)
same,"Pain in Extremity, number of subjects",[3]; N = 896,11
same,"Pruritus, figure in parentheses (percent of subjects)",[3]; N = 896,(1.0)
same,"Pruritus, number of subjects",[3]; N = 896,9
same,"Rash, figure in parentheses (percent of subjects)",[3]; N = 896,(0.6)
same,"Rash, number of subjects",[3]; N = 896,5
same,"Somnolence, figure in parentheses (percent of subjects)",[3]; N = 896,(1.0)
same,"Somnolence, number of subjects",[3]; N = 896,9
same,"Vomiting, figure in parentheses (percent of subjects)",[3]; N = 896,(1.3)
same,"Vomiting, number of subjects",[3]; N = 896,12
same,general safety and tolerability,"[3]; about 1,200 individuals, doses 0.1 mg to 100 mg",generally safe and well tolerated
same,increase in lean body mass,[4],approximately 1.7%
